Measured values reported in ChEMBL document CHEMBL1147445, “Antagonists of human CCR5 receptor containing 4-(pyrazolyl)piperidine side chains. Part 2: Discovery of potent, selective, and orally bioavailable compounds” (Bioorg Med Chem Lett, 2004).

Experiments:
in vivo [1] = details: rat
[2] = molecular target: T1, C-C chemokine receptor type 5 (Homo sapiens, UniProt P51681); test: Displacement of [125I]-MIP-1 alpha from human […] chemokine receptor 5 expressed in CHO cells; assay type: cell-based
[3] = Oral bioavailability in rat; details: in vivo
in vivo [4] = details: rat, plasma
HeLa = test: In vitro antiviral activity against HIV-1 infected HeLa cells; assay type: functional; details: Homo sapiens
Rattus norvegicus [5] = test: Area under curve in rat after p.o. administration; details: in vivo, po
[6] = molecular target: T1, C-C chemokine receptor type 5; test: Inhibitory concentration of compound to displace GP120 from […] chemokine receptor 5
[7] = Inhibition of HIV-1 infectivity using peripheral bloodmonon uclear cells against the BAL-1 strain in the presence of 50% normal human serum (NHS); assay type: functional
Rattus norvegicus [8] = test: Area under curve in rat after peroral administration; assay type: ADME, organism-based; details: in vivo, po
[9] = Inhibition of HIV-1 infectivity using peripheral bloodmonon uclear cells against the BAL-1 strain; assay type: functional; details: Homo sapiens
[10] = Clearance rat (dosed at 0.5 mpk IV and 2.0 mpk po.); assay type: ADME, organism-based; details: plasma, 0.5 mg/kg, read-out: Clp
Rattus norvegicus [11] = test: Volumes of distribution in rat after po administration; details: in vivo
[12] = Half life in dog (dosed at 0.5 mpk iv and 2.0 mpk orally); assay type: ADME, organism-based, Canis lupus familiaris; details: in vivo
[13] = Oral bioavailability in dog (dose 0.5 mg/kg i.v. and 2.0 mg/kg p.o.); assay type: ADME, organism-based, Canis lupus familiaris; details: in vivo
[14] = Plasma clearance in monkey (dosed at 0.5 mpk iv and 2.0 mpk orally); assay type: ADME, organism-based; details: cercopithecidae, 0.5 mg/kg, read-out: Clp
[15] = Oral bioavailability in monkey (dosed at 0.5 mpk iv and 2.0 mpk orally); assay type: ADME, organism-based; details: cercopithecidae, in vivo, 2 mg/kg
[16] = Oral AUCN in monkey (dosed at 0.5 mpk iv ); assay type: ADME, organism-based; details: cercopithecidae, in vivo, 0.5 mg/kg
Canis familiaris = test: Oral AUCN in dog (dosed at 2.0 mpk po ); details: in vivo, 2.0 mg/kg
[17] = Half life in monkey (dosed at 0.5 mpk iv and 2.0 mpk orally); assay type: ADME, organism-based; details: cercopithecidae, in vivo
[18] = Plasma clearance in dog (dosed at 0.5 mpk iv and 2.0 mpk orally); assay type: ADME, organism-based, Canis lupus familiaris; details: 0.5 mg/kg, read-out: Clp
[19] = molecular target: T1, C-C chemokine receptor type 5; test: Inhibitory concentration of compound to displace GP120 from […] chemokine receptor 5; remark: listed apart in the source

T1 sequence (P51681 whole entry): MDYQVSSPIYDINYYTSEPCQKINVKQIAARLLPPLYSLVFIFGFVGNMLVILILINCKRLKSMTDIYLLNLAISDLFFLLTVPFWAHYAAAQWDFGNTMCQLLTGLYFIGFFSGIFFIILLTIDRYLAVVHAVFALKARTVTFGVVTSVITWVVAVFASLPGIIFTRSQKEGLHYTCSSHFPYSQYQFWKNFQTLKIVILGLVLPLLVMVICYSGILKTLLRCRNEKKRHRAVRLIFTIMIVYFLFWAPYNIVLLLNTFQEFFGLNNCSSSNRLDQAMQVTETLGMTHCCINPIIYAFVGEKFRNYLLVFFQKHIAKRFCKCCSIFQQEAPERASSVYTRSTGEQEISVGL

half-life (in vivo [1]) [min] | IC50 [2] [nM] | bioavailability [3] [%] | clearance (in vivo [4]) [mL/min/kg] | IC90 (HeLa) [nM] | AUC N (Rattus norvegicus [5]) [uM hr dose-1] | Structure (SMILES) | IC95 [7] [µM] | IC95 [9] [nM] | further results
35.4 | 0.9 | 52 | 19 | 0.4 | 0.8 | CCC(CC)[C@H](C(=O)O)N1C[C@H](CN2CCC(c3cc(Cc4ccccc4)nn3CC)CC2)[C@@H](c2cccc(F)c2)C1 | – | – | –
– | 0.9 | – | – | 0.4 | – | CC[C@H](C)[C@H](C(=O)O)N1C[C@H](CN2CCC(c3cc(Cc4ccccc4)nn3CC)CC2)[C@@H](c2cccc(F)c2)C1 | – | – | –
– | – | – | – | 0.4 | – | CCn1nc(Cc2ccccc2)cc1C1CCN(C[C@H]2CN([C@@H](C(=O)O)C3CCCCC3)C[C@@H]2c2ccccc2)CC1 | < 0.008 | < 8 | IC50 [6]: 2 nM; AUC N (Rattus norvegicus [8]): 0.02 uM hr dose-1
42.6 | 1.2 | 7.3 | – | 0.4 | 0.05 | CCn1nc(Cc2ccccc2)cc1C1CCN(C[C@H]2CN([C@H](CC3CCC3)C(=O)O)C[C@@H]2c2cccc(F)c2)CC1 | 0.035 | < 0.8 | clearance [10]: 46 mL/min/kg
32.4 | 0.8 | 13 | 25 | < 0.14 | 0.16 | CC[C@@H](C)[C@H](C(=O)O)N1C[C@H](CN2CCC(c3cc(Cc4ccccc4)nn3CC)CC2)[C@@H](c2cccc(F)c2)C1 | – | – | –
– | 1.6 | – | – | 0.4 | – | CCn1nc(Cc2ccccc2)cc1C1CCN(C[C@H]2CN([C@@H](C(=O)O)C3CCCCC3)C[C@@H]2c2cccc(F)c2)CC1 | – | – | –
44.4 | 5.5 | 21 | 10 | > 300 | 0.62 | CCn1nc(Cc2ccccc2)cc1C1CCN(C[C@H]2CN([C@](C)(C(=O)O)C(C)C)C[C@@H]2c2cccc(F)c2)CC1 | – | – | Vdss (Rattus norvegicus [11]): 0.43 L/kg
60 | 1.6 | 11 | – | 3.7 | 0.06 | CCn1nc(Cc2ccccc2)cc1C1CCN(C[C@H]2CN([C@@H](C(=O)O)C3CCC3)C[C@@H]2c2ccccc2)CC1 | – | – | clearance [10]: 60 mL/min/kg
84 | 1.5 | 11 | 3.2 | 3.7 | 1.1 | CCn1nc(Cc2ccccc2)cc1C1CCN(C[C@H]2CN([C@@H](C(=O)O)C(C)C)C[C@@H]2c2cccc(F)c2)CC1 | 0.35 | 22 | half-life [12]: 204 min; bioavailability [13]: 20%; clearance [14]: 20 mL/min/kg; bioavailability [15]: 4.7%; AUC N [16]: 0.08 uM hr dose-1; AUC N (Canis familiaris): 1.9 uM hr dose-1; half-life [17]: 78 min; clearance [18]: 3.5 mL/min/kg
47.4 | 0.8 | 71 | 5.7 | < 0.14 | 3.7 | CCn1nc(Cc2ccccc2)cc1C1CCN(C[C@H]2CN([C@@H](C(=O)O)C(C)(C)C)C[C@@H]2c2cccc(F)c2)CC1 | – | – | half-life [12]: 38.4 min; bioavailability [13]: 44%; AUC N (Canis familiaris): 1 uM hr dose-1; clearance [18]: 13 mL/min/kg
– | 1.6 | – | – | 300 | – | CCn1nc(Cc2ccccc2)cc1C1CCN(C[C@H]2CN([C@@](C)(C(=O)O)C(C)C)C[C@@H]2c2cccc(F)c2)CC1 | – | – | –
72 | – | 17 | 43 | 3.7 | 0.13 | CCn1nc(Cc2ccccc2)cc1C1CCN(C[C@H]2CN([C@H](CC(C)C)C(=O)O)C[C@@H]2c2ccccc2)CC1 | 0.125 | < 8 | Vdss (Rattus norvegicus [11]): 2.1 L/kg; IC50 [19]: 2.9 nM
15 | 1.2 | 8.1 | – | 0.4 | 0.03 | CCn1nc(Cc2ccccc2)cc1C1CCN(C[C@H]2CN([C@H](CC3CC3)C(=O)O)C[C@@H]2c2cccc(F)c2)CC1 | 0.031 | < 8 | clearance [10]: 81 mL/min/kg
336 | – | 17 | – | 11 | 0.45 | CCn1nc(Cc2ccccc2)cc1C1CCN(C[C@H]2CN([C@@H](C(=O)O)C(C)C)C[C@@H]2c2ccccc2)CC1 | – | – | clearance [10]: 12.6 mL/min/kg; IC50 [19]: 2.8 nM
